The text below walks through data of patent US20060211748A1, “Sulphydryl compounds in combination with sulpha compounds” (priority 2002, published 2006).

Each structure is given as a SMILES string.

The conditions of data set [1]: treatment of opportunistic infections associated with AIDS; cited from earlier work.
For data set [2], the system named is ^51Cr-labelled erythrocytes. The data set can be described thus: Half-life of 51Cr-labelled erythrocytes challenged in vitro with DDS N-hydroxylamine and re-introduced to autologous rats. It counts as in vivo. The note with it: red cells incubated two hours with DDS N-hydroxylamine 0.05 to 0.5 millimolar with N-acetyl-L-cysteine 2 to 10 millimolar, reintroduced into autologous rat. As to the method: Blood is drawn from laboratory rats into heparinized tubes, washed using conventional methods, and resuspended in buffered saline solution. Red blood cells are labeled with ^51Cr as chromate using the CPD standard method known to those skilled in the art. After resuspension in isotonic saline, DDS N-hydroxylamine alone (control) or with N-acetyl-L-cysteine (treatment) are added at final concentrations of 0.05 to 0.5 millimolar and 2 millimolar to 10 millimolar, respectively, and incubated for two hours. A 0.5 milliliter sample of the washed and resuspended red blood cells is then reintroduced into the autologous animal. Half-life of the labeled erythrocytes is determined by blood sampling every two days and counting of radioactive decay in the sample using a gamma counter.

For the molecule `Nc1ccc(S(=O)(=O)c2ccc(N)cc2)cc1` [DDS, 4,4′-diaminodiphenylsulphone], the “Discontinuation of clinical use due to toxicity” value in data set [1] is on record as “about 25 % of patients”.

Take `CC(=O)N[C@@H](CS)C(=O)O` [N-acetyl-L-cysteine]: the “Half-life of ^51Cr-labelled erythrocytes” value in data set [2] was “able to preserve the normal half-life”.
